Test results taken from patent publication US8951969B2, “Compositions and methods for treating centrally mediated nausea and vomiting” (Helsinn Healthcare S.A., priority 2009, dated 2015).
Read-outs that look alike come from different tables or passages of the source. Each block holds one compound with its values, some of them ahead of it.

Legend:
[1] = molecular target: T1, NK1 receptors in human brain (Homo sapiens, UniProt P25103); experiment: Netupitant PET receptor occupancy study (11C-GR205171 tracer); type: in vivo; conditions: for mean NK1-RO: 96 hours post dose
T1 construct: 6 healthy male volunteers (2 per dose level) receiving single doses of netupitant; from tissue; host or cells: brain of healthy male human volunteers, in vivo
Procedure: This was a randomized, open-label, positron emission tomography (PET) study using 11C-GR205171 as tracer in 6 healthy male volunteers (2 per dose level) receiving single doses of netupitant (100, 300 or 450 mg) to investigate the degree of occupancy of NK1 receptors in human brain, and to determine the relationship between plasma concentration of netupitant and NK1 receptor occupancy (RO).

[2] = Pharmacokinetics of combined dosage form: randomized, open, 3-way crossover study; type: in vivo; conditions: human, fasting; for half-life / Tmax: median (range)
Procedure: The effects of palonosetron on the pharmacokinetics (PK) of netupitant and the effects of netupitant on the PK of palonosetron were examined in healthy volunteers. A randomized, open, 3-way crossover study was conducted. Each subject participated in 3 treatment periods, each lasting approximately 12 days (Day −1 to Day 11). The treatment periods were separated by wash-out periods of no less than 14 days (between Day 1 of any 2 consecutive treatment periods). Treatment A: oral netupitant 450 mg. administered as single dose of three 150 mg. capsules. Treatment B: oral palonosetron 0.75 mg. and oral netupitant 450 mg. administered simultaneously as three capsules of 150 mg. netupitant followed by 1 capsule of 0.75 mg. palonosetron. Treatment C: oral palonosetron 0.75 mg. administered as single dose as one 0.75 mg. capsule. Doses were administered under fasting conditions. Subjects fasted over-night for approximately 10 hours. Water, however, was permitted up to 1 hour pre-dose. Food intake was permitted 4 hours post-dose, and water was allowed ad libitum 1 hour post-dose. Doses were administered with the subject in an upright position. The subjects remained in an upright position for 4 hours post-dose. The capsules were swallowed whole with 250 mL of room-temperature tap water. Repeated PK blood sampling (for netupitant and/or palonosetron) was performed. The primary PK variables assessed for netupitant and palonosetron were the maximum plasma concentration observed (Cmax), the area under the plasma concentration versus time curve from time zero to the last quantifiable sampling time point (t) (AUC0-t), and the area under the plasma concentration versus time curve from time zero to infinity (AUC0-inf). The secondary PK variables assessed were the terminal elimination half-life (t1/2, z), and the time at which the maximum plasma concentration was observed (tmax). Results are depicted in below Tables 3 and 4, as well as FIGS. 2 and 3.

[3] = test system: highly emetogenic chemotherapy (HEC)-induced nausea and vomiting; experiment: Phase 2 clinical efficacy study, netupitant + palonosetron + dexamethasone; type: in vivo, human; design: Total Control, Overall: percent of patients / Total Control, Acute: percent of patients / Total Control, Delayed: percent of patients / Complete Protection, Overall: percent of patients / Complete Protection, Acute: percent of patients / Complete Protection, Delayed: percent of patients: concentration or dose not given beside the values; conditions: MFAS
Text: A phase 2 trial evaluated three single doses of netupitant combined with palonosetron and dexamethasone compared to palonosetron alone and dexamethasone to obtain dose ranging information for netupitant used with oral palonosetron in the CINV patient population.
The objective of the study was to compare the efficacy and safety of three single oral doses of netupitant combined with oral palonosetron and given with dexamethasone, versus oral palonosetron-alone given with dexamethasone (without netupitant) for the prevention of highly emetogenic chemotherapy (HEC)-induced nausea and vomiting. The FDA-approved oral aprepitant regimen given with IV ondansetron and dexamethasone was included in the study as an active comparator for exploratory purposes. The FDA-approved oral palonosetron 0.5 mg. dose was used in each applicable treatment group in this study.
This was a multicenter, randomized, double-blind, double-dummy, parallel group, stratified study. Eligible patients were randomized (stratified by gender) to one of the following treatment groups: • Group 1—0.5 mg. oral palonosetron on Day 1 (with an oral dexamethasone standard regimen: 20 mg. on Day 1 and 8 mg. BID from Day 2 through Day 4) • Group 2—100 mg. oral netupitant plus 0.5 mg. oral palonosetron on Day 1 (with an oral dexamethasone adjusted regimen*: 12 mg. on Day 1 and 8 mg. daily from Day 2 through Day 4) • Group 3—200 mg. oral netupitant plus 0.5 mg. oral palonosetron on Day 1 (with an oral dexamethasone adjusted regimen*: 12 mg. on Day 1 and 8 mg. daily from Day 2 to Day 4) • Group 4—300 mg. oral netupitant plus 0.5 mg. oral palonosetron on Day 1 (with dexamethasone adjusted regimen*: 12 mg. on Day 1 and 8 mg. daily from Day 2 to Day 4) • Group 5—125 mg. oral aprepitant plus IV ondansetron 32 mg. (both on Day 1) then 80 mg. oral aprepitant on Day 2 and Day 3, (all with an oral dexamethasone adjusted regimen: 12 mg. on Day 1 and 8 mg. daily from Day 2 through Day 4)
The primary efficacy endpoint was the complete response rate (defined as no emetic episodes, no rescue medication) within 120 hours after the start of the highly emetogenic chemotherapy administration. Secondary efficacy endpoints were: • Complete response for the 0-24 hour interval (acute phase); and for the 25-120 hour interval (delayed phase); • Complete protection (defined as no emesis, no rescue therapy, no significant nausea); Total control (defined as no emesis, no rescue therapy and no nausea); No nausea (maximum VAS<5 mm); No significant nausea (maximum VAS<25 mm); No rescue medication; No emesis. These endpoints were evaluated for the 0-120 hour interval (overall), acute and delayed phase. • Time to first emetic episode, Time to first rescue medication, Time to treatment failure (based on time to the first emetic episode or time to the first rescue medication, whichever occurs first); • Severity of nausea for the overall, acute and delayed phase; ● Patient global satisfaction with anti-emetic therapy by means of VAS for each 24 hour interval.

[4] = Netupitant + dexamethasone drug interaction study; type: in vivo, human
Procedure: The effect of netupitant on orally administered dexamethasone pharmacokinetics was evaluated in this study. This was a randomized, open, 3-period crossover study utilizing an incomplete Latin Square design where subjects were given dexamethasone alone, or oral Netupitant 100 mg., 300 mg. or 450 mg. each given with dexamethasone. Netupitant was given orally on Day 1 only. The dexamethasone regimen for each treatment was 20 mg. orally Day 1, followed by 8 mg. orally every 12 hours from Day 2 through Day 4. Nineteen subjects (12 male and 7 female) completed the study (i.e., all 3 treatment periods).

[5] = 0-24 h, Group 1 (Palo alone) / Group 5 (Aprepitant Regimen)
[6] = 0-120 h, Group 1 (Palo alone) / Group 5 (Aprepitant Regimen)
[7] = 25-120 h, Group 1 (Palo alone) / Group 5 (Aprepitant Regimen)
[8] = HEC (cisplatin) patients, Group 1 (Palo alone) / Group 5 (Aprepitant Regimen)
[9] = co-administration of 100 mg netupitant (oral, Day 1) vs dexamethasone alone
[10] = co-administration of 300 mg netupitant (oral, Day 1) vs dexamethasone alone
[11] = co-administration of 450 mg netupitant (oral, Day 1) vs dexamethasone alone

T1 sequence (P25103 whole entry): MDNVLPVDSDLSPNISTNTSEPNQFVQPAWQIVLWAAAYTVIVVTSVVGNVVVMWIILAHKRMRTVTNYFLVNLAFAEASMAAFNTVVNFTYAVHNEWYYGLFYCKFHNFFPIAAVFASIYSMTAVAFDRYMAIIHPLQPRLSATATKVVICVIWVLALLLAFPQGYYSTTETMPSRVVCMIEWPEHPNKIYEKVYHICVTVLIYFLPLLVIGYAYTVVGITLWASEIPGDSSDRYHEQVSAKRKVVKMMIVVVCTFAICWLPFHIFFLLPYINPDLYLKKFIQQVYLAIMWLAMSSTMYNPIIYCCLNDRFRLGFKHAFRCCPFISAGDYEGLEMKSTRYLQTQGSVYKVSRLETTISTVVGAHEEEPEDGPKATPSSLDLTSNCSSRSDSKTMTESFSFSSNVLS

mean NK1-RO ([1]; 100 mg dose group, 4 of 6 regions): over 70%
mean NK1-RO ([1]; 450 mg dose group, 5 of 6 regions): ≥ 80%
NK1 receptor occupancy (NK1-RO) ([1]; 6 hours post dose, striatum, occipital cortex, frontal cortex and anterior cingulate, reached in 3 of 6 subjects (1 at 300 mg, 2 at 450 mg single oral dose)): ≥ 90%
Cmax ([2]; plasma netupitant, oral netupitant 450 mg single dose, mean (SD)): 650 ng/mL
AUC(0-t) ([2]; plasma netupitant, oral netupitant 450 mg single dose, mean (SD), read-out: Netupitant AUC0-t): 22800 ng·h/mL
AUC ([2]; plasma netupitant, oral netupitant 450 mg single dose, mean (SD), read-out: Netupitant AUCo-inf): 25900 ng·h/mL
half-life ([2]; plasma netupitant, oral netupitant 450 mg single dose, read-out: Netupitant t1/2, z (converted)): 71.8 h
Tmax ([2]; plasma netupitant, oral netupitant 450 mg single dose, read-out: Netupitant tmax): 4.5 h
Structure (SMILES): Cc1ccccc1-c1cc(N2CCN(C)CC2)ncc1N(C)C(=O)C(C)(C)c1cc(C(F)(F)F)cc(C(F)(F)F)c1 [Netupitant, 2-[3,5-bis(trifluoromethyl)phenyl]-N,2-dimethyl-N-[4-(2-methylphenyl)-6-(4-methylpiperazin-1-yl)pyridin-3-yl]propanamide]
No Emesis, Overall: percent of patients ([3]; 0-120 h, netupitant 100 mg + palonosetron 0.5 mg oral Day 1, with dexamethasone): 87.4%
No Emesis, Overall: percent of patients ([3]; 0-120 h, netupitant 200 mg + palonosetron 0.5 mg oral Day 1, with dexamethasone): 87.6%
No Emesis, Overall: percent of patients ([3]; 0-120 h, netupitant 300 mg + palonosetron 0.5 mg oral Day 1, with dexamethasone): 91.1%
CR, Overall Phase, 0-120 h: Percent of Patients ([3]; HEC (cisplatin) patients, netupitant 100 mg + palonosetron 0.5 mg oral Day 1, with dexamethasone): 87.4%
CR, Overall Phase, 0-120 h: Percent of Patients ([3]; HEC (cisplatin) patients, netupitant 200 mg + palonosetron 0.5 mg oral Day 1, with dexamethasone): 87.6%
CR, Overall Phase, 0-120 h: Percent of Patients ([3]; HEC (cisplatin) patients, netupitant 300 mg + palonosetron 0.5 mg oral Day 1, with dexamethasone): 89.6%

half-life ([2]; plasma palonosetron, oral palonosetron 0.75 mg single dose, read-out: Palonosetron t1/2, z (converted)): 34.7 h
Tmax ([2]; plasma palonosetron, oral palonosetron 0.75 mg single dose, read-out: Palonosetron tmax): 5.02 h
Structure (SMILES): Cl.O=C1c2cccc3c2[C@H](CCC3)CN1[C@@H]1CN2CCC1CC2 [Palonosetron, (3aS)-2-[(S)-1-Azabicyclo[2.2.2]oct-3-yl]-2,3,3a,4,5,6-hexahydro-1-oxo-1Hberiz[de]isoquinoline hydrochloride]
Complete Protection, Acute: percent of patients [3, 5]: 87.5%
No Emesis, Acute: percent of patients [3, 5]: 89.7%
No Rescue, Acute: percent of patients [3, 5]: 97.8%
Total Control, Acute: percent of patients [3, 5]: 71.3%
No Emesis, Overall: percent of patients [3, 6]: 76.5%
No Rescue, Overall: percent of patients [3, 6]: 95.6%
Complete Protection, Delayed: percent of patients [3, 7]: 73.5%
No Emesis, Delayed: percent of patients [3, 7]: 80.1%
No Rescue, Delayed: percent of patients [3, 7]: 97.1%
Total Control, Delayed: percent of patients [3, 7]: 52.2%
CR, Acute Phase, −24 h: Percent of Patients [3, 8]: 89.7%
CR, Delayed Phase, 25-120 h: Percent of Patients [3, 8]: 80.1%
CR, Overall Phase, 0-120 h: Percent of Patients [3, 8]: 76.5%
No Nausea, Acute: percent of patients ([3]; maximum VAS<5 mm, 0-24 h, Group 1 (Palo alone) / Group 5 (Aprepitant Regimen)): 75.0%
No Nausea, Overall: percent of patients ([3]; maximum VAS<5 mm, 0-120 h, Group 1 (Palo alone) / Group 5 (Aprepitant Regimen)): 50.7%
No Nausea, Delayed: percent of patients ([3]; maximum VAS<5 mm, 25-120 h, Group 1 (Palo alone) / Group 5 (Aprepitant Regimen)): 53.7%
No Significant Nauea, Acute: percent of patients ([3]; maximum VAS<25 mm, 0-24 h, Group 1 (Palo alone) / Group 5 (Aprepitant Regimen)): 93.4%
No Significant Nauea, Overall: percent of patients ([3]; maximum VAS<25 mm, 0-120 h, Group 1 (Palo alone) / Group 5 (Aprepitant Regimen)): 79.4%
No Significant Nauea, Delayed: percent of patients ([3]; maximum VAS<25 mm, 25-120 h, Group 1 (Palo alone) / Group 5 (Aprepitant Regimen)): 80.9%
Total Control, Overall: percent of patients ([3]; no emesis, no rescue therapy and no nausea, 0-120 h, Group 1 (Palo alone) / Group 5 (Aprepitant Regimen)): 50.0%
Complete Protection, Overall: percent of patients ([3]; no emesis, no rescue therapy, no significant nausea, 0-120 h, Group 1 (Palo alone) / Group 5 (Aprepitant Regimen)): 69.9%

Dexamethasone Cmin on Days 2-4, fold increase ([4]; co-administration of 100 mg netupitant): approximately 2.8 fold
AUC0-24 (Day 1) of dexamethasone, fold increase [4, 9]: 1.5 fold
AUC24-36 (Day 2) of dexamethasone, fold increase [4, 9]: 2.1 fold
AUC84-108 and AUC84-inf (Day 4) of dexamethasone, fold increase [4, 9]: 1.7 fold
Dexamethasone Cmin on Days 2-4, fold increase ([4]; co-administration of 300 mg netupitant): ~4.3 fold
AUC0-24 (Day 1) of dexamethasone, fold increase [4, 10]: 1.7 fold
AUC24-36 (Day 2) of dexamethasone, fold increase [4, 10]: 2.4 fold
AUC84-108 and AUC84-inf (Day 4) of dexamethasone, fold increase [4, 10]: 2.4 fold
Dexamethasone Cmin on Days 2-4, fold increase ([4]; co-administration of 450 mg netupitant): ~4.6 fold
AUC0-24 (Day 1) of dexamethasone, fold increase [4, 11]: 1.8 fold
AUC24-36 (Day 2) of dexamethasone, fold increase [4, 11]: 2.6 fold
AUC84-108 and AUC84-inf (Day 4) of dexamethasone, fold increase [4, 11]: 2.7 fold
Dexamethasone Cmax on Day 1, fold increase ([4]; co-administration with 100 mg netupitant): 1.1 fold
Dexamethasone Cmax on Day 1, fold increase ([4]; co-administration with 300 mg netupitant): 1.1 fold
Dexamethasone Cmax on Day 1, fold increase ([4]; co-administration with 450 mg netupitant): 1.2 fold
Dexamethasone Cmax on Day 2 and Day 4, fold increase ([4]; subjects administered netupitant (100, 300 or 450 mg)): approximately 1.7 fold
Structure (SMILES): C[C@@H]1C[C@H]2[C@@H]3CCC4=CC(=O)C=C[C@]4(C)[C@@]3(F)[C@@H](O)C[C@]2(C)[C@@]1(O)C(=O)CO [dexamethasone]
